Experimental data: patent publication US11427558B1, “Indazoles and azaindazoles as LRRK2 inhibitors” (ESCAPE Bio, Inc., priority 2019, dated 2022)

Columns and labels:
[1] = biological target: Recombinant wild type LRRK2 protein (Homo sapiens (Human), UniProt Q5S007); assay: LRRK2 kinase activity, LanthaScreen TR-FRET assay (wild type); format: biochemical; conditions: LRRKtide 400 nM, 25 μM ATP, 60 min; read-out: LRRK2 WT IC50
How it was run: (§1)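 Recombinant human wild-type or G2019S LRRK2 phosphorylated fluorescein-labelled LRRKtide (ERM-based) with ATP and serially diluted compound for 60 min at room temperature.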

[2] = biological target: Recombinant G2019S-LRRK2 protein (Homo sapiens (Human), UniProt Q5S007, G2019S); assay: LRRK2 kinase activity, LanthaScreen TR-FRET assay (G2019S); format: biochemical; conditions: LRRKtide 400 nM, 25 μM ATP, 60 min
Chain of Recombinant G2019S-LRRK2 protein (Q5S007 whole entry G2019S): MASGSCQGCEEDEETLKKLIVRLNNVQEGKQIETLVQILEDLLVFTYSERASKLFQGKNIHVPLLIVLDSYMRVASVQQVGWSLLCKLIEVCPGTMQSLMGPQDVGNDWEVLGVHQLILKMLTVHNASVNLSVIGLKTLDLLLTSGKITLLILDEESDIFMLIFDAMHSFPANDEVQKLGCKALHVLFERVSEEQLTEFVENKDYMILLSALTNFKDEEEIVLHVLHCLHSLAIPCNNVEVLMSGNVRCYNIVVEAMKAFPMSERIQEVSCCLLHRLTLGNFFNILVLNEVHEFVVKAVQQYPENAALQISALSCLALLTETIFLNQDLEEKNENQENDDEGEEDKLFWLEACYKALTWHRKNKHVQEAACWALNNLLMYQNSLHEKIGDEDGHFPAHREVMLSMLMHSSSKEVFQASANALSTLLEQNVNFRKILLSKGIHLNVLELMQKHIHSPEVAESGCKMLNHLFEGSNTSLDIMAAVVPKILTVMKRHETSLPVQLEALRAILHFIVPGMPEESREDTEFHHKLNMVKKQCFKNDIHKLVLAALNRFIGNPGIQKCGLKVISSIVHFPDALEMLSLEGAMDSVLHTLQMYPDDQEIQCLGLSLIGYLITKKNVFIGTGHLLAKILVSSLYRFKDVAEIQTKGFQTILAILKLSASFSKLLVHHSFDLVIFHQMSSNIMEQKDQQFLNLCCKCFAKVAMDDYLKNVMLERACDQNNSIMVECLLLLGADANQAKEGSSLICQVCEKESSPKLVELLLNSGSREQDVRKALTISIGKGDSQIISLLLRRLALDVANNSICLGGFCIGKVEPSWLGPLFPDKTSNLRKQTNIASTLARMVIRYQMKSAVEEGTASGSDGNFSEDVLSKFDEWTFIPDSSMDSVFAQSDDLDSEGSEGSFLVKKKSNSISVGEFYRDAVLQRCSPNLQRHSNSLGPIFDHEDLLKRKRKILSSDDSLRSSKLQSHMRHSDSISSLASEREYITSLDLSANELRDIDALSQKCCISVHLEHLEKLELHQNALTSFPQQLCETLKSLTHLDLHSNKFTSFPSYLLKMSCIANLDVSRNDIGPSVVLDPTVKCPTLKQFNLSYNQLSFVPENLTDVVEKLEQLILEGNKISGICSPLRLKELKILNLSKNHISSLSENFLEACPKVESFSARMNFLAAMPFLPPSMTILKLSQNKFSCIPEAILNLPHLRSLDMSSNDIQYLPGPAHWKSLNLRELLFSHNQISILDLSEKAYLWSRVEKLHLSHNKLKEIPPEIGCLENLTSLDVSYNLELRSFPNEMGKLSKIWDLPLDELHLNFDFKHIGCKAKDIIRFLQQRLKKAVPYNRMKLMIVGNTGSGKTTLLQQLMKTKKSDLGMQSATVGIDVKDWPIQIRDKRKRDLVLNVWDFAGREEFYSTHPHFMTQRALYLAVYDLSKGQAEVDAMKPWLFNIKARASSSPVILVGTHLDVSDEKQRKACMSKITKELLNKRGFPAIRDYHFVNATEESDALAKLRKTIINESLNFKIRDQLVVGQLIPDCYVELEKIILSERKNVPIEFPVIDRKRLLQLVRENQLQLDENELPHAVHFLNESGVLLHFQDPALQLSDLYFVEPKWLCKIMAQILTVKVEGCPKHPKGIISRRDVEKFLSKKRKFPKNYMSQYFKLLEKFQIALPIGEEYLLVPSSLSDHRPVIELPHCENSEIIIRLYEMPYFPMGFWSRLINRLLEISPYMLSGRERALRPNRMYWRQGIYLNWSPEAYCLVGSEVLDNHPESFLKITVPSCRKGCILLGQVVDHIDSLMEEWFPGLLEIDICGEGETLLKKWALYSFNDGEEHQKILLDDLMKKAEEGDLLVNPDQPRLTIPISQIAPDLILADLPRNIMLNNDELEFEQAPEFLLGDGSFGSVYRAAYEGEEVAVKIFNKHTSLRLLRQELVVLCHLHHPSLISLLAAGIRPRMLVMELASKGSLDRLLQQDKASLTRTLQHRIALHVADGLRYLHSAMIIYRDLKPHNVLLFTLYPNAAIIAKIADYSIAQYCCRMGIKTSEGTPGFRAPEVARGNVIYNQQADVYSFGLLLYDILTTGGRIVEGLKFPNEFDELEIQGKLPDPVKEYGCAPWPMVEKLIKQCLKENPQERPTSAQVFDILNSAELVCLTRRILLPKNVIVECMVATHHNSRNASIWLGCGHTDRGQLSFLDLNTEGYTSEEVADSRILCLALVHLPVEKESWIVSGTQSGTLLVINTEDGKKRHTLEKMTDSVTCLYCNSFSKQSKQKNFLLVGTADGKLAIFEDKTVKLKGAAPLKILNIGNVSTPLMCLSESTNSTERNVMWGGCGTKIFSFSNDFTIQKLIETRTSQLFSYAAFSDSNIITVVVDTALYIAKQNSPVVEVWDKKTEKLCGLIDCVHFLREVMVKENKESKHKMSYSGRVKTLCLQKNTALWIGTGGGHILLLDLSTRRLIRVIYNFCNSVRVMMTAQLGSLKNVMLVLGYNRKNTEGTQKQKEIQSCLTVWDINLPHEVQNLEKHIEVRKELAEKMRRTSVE
How it was run: as §1

Chain of Recombinant wild type LRRK2 protein (Q5S007 whole entry): as the sequence (Q5S007 whole entry G2019S) above, with S2019G counted along it

Structure (SMILES) | IC50 [1] | IC50 [2]
Cc1c(C#N)cnc(C(=O)Nc2ccc3[nH]nc(Cl)c3c2)c1C [Example 301, N-(3-Chloro-1H-indazol-5-yl)-5-cyano-3,4-dimethylpicolinamide] | 1000 to 10000 nM | < 100 nM
Cc1c(C(=O)Nc2ccc3[nH]nc(C)c3c2)nc(Br)c(C#N)c1C [Example 302, 6-Bromo-5-cyano-3,4-dimethyl-N-(3-methyl-1H-indazol-5-yl)picolinamide] | < 100 nM | < 100 nM
Cc1c(C(=O)Nc2ccc3[nH]nc(C4CC4)c3c2)nc(Cl)c(C#N)c1C [Example 303, 6-Chloro-5-cyano-N-(3-cyclopropyl-1H-indazol-5-yl)-3,4-dimethylpicolinamide] | < 100 nM | < 100 nM
COc1nc(C(=O)Nc2ccc3[nH]nc(C4CC4)c3c2)c(C)c(C)c1C#N [Example 304, 5-Cyano-N-(3-cyclopropyl-1H-indazol-5-yl)-6-methoxy-3,4-dimethylpicolinamide] | < 100 nM | < 100 nM
Cc1nc(C(=O)Nc2ccc3[nH]nc(C4CC4)c3c2)c(C)c(C)c1C#N [Example 305, 5-Cyano-N-(3-cyclopropyl-1H-indazol-5-yl)-3,4,6-trimethylpicolinamide] | 100 to 1000 nM | < 100 nM
Cc1c(C(=O)Nc2ccc3[nH]nc(C)c3c2)ncc(C#N)c1Cl [Example 306, 4-Chloro-5-cyano-3-methyl-N-(3-methyl-1H-indazol-5-yl)picolinamide] | 100 to 1000 nM | < 100 nM
Cc1cc(C#N)c(Cl)nc1C(=O)Nc1ccc2[nH]nc(C)c2c1 [Example 307, 6-Chloro-5-cyano-3-methyl-N-(3-methyl-1H-indazol-5-yl)picolinamide] | 100 to 1000 nM | < 100 nM
COc1n[nH]c2ccc(NC(=O)c3nc(Cl)c(C#N)c(C)c3C)cc12 [Example 308, 6-Chloro-5-cyano-N-(3-methoxy-1H-indazol-5-yl)-3,4-dimethylpicolinamide] | < 100 nM | < 100 nM
N#Cc1cnc(C(=O)Nc2ccc3[nH]nc(-c4cnoc4)c3c2)c(Cl)c1 [Example 309, 3-Chloro-5-cyano-N-(3-(isoxazol-4-yl)-1H-indazol-5-yl)picolinamide] | < 100 nM | < 100 nM
N#Cc1cnc(C(=O)Nc2ccc3[nH]nc(-c4cnoc4)c3c2)c(C2CC2)c1 [Example 310, 5-Cyano-3-cyclopropyl-N-(3-(isoxazol-4-yl)-1H-indazol-5-yl)picolinamide] | 100 to 1000 nM | < 100 nM
COc1cccc(-c2n[nH]c3ccc(NC(=O)c4ncc(C#N)cc4C4CC4)cc23)c1 [Example 311, 5-Cyano-3-cyclopropyl-N-(3-(3-methoxyphenyl)-1H-indazol-5-yl)picolinamide] | 100 to 1000 nM | < 100 nM
N#Cc1cnc(C(=O)Nc2ccc3[nH]nc(-c4cnco4)c3c2)c(C2CC2)c1 [Example 312, 5-Cyano-3-cyclopropyl-N-(3-(oxazol-5-yl)-1H-indazol-5-yl)picolinamide] | 100 to 1000 nM | < 100 nM
C=C(C)c1cc(C#N)cnc1C(=O)Nc1ccc2[nH]nc(C)c2c1 [Example 313, 5-Cyano-N-(3-methyl-1H-indazol-5-yl)-3-(prop-1-en-2-yl)picolinamide] | 1000 to 10000 nM | 100 to 1000 nM
Cc1c(C#N)cnc(C(=O)Nc2cc(F)c3[nH]ncc3c2)c1C [Example 314, 5-Cyano-N-(7-fluoro-1H-indazol-5-yl)-3,4-dimethylpicolinamide] | 1000 to 10000 nM | 100 to 1000 nM
Cc1c(C#N)cnc(C(=O)Nc2ccc3[nH]nc(F)c3c2)c1C [Example 315, 5-Cyano-N-(3-fluoro-1H-indazol-5-yl)-3,4-dimethylpicolinamide] | 1000 to 10000 nM | < 100 nM
Cc1c(C#N)ccc(F)c1C(=O)Nc1ccc2[nH]nc(C)c2c1 [Example 316, 3-Cyano-6-fluoro-2-methyl-N-(3-methyl-1H-indazol-5-yl)benzamide] | 100 to 1000 nM | < 100 nM
CSc1n[nH]c2ccc(NC(=O)c3nc(Cl)c(C#N)c(C)c3C)cc12 [Example 317, 6-Chloro-5-cyano-3,4-dimethyl-N-(3-(methylthio)-1H-indazol-5-yl)picolinamide] | < 100 nM | < 100 nM
N#Cc1cnc(C(=O)Nc2ccc3[nH]nc(-c4cnco4)c3c2)c(Cl)c1 [Example 318, 3-Chloro-5-cyano-N-(3-(oxazol-5-yl)-1H-indazol-5-yl)picolinamide] | < 100 nM | < 100 nM
Cc1cc(C#N)cnc1C(=O)Nc1ccc2[nH]nc(-c3cccc(P(C)(C)=O)c3)c2c1 [Example 319, 5-Cyano-N-(3-(3-(dimethylphosphoryl)phenyl)-1H-indazol-5-yl)-3-methylpicolinamide] | 100 to 1000 nM | < 100 nM
Cc1c(C(=O)Nc2ccc3[nH]nc(Cl)c3c2)nc(Cl)c(C#N)c1C [Example 320, 6-Chloro-N-(3-chloro-1H-indazol-5-yl)-5-cyano-3,4-dimethylpicolinamide] | < 100 nM | < 100 nM
COc1nc(C(=O)Nc2ccc3[nH]nc(Cl)c3c2)c(C)c(C)c1C#N [Example 321, N-(3-Chloro-1H-indazol-5-yl)-5-cyano-6-methoxy-3,4-dimethylpicolinamide] | 100 to 1000 nM | < 100 nM
COc1nc(C(=O)Nc2ccc3[nH]nc(C)c3c2)c(C)c(C)c1C#N [Example 322, 5-Cyano-6-methoxy-3,4-dimethyl-N-(3-methyl-1H-indazol-5-yl)picolinamide] | < 100 nM | < 100 nM
Cc1cc(C#N)cnc1C(=O)Nc1ccc2[nH]nc(CCCN3CCCCC3)c2c1 [Example 323, 5-cyano-3-methyl-N-(3-(3-(piperidin-1-yl)propyl)-1H-indazol-5-yl)picolinamide] | > 10000 nM | > 10000 nM
Cc1c(C(=O)Nc2ccc3[nH]nc(Br)c3c2)nc(Cl)c(C#N)c1C [Example 324, N-(3-Bromo-1H-indazol-5-yl)-6-chloro-5-cyano-3,4-dimethylpicolinamide] | < 100 nM | < 100 nM
Cc1nc(C(=O)Nc2ccc3[nH]nc(C)c3c2)c(C)c(C)c1C#N [Example 325, 5-Cyano-3,4,6-trimethyl-N-(3-methyl-1H-indazol-5-yl)picolinamide] | 1000 to 10000 nM | < 100 nM
Cc1c(C#N)cnc(C(=O)Nc2ccc3[nH]nc(C)c3c2)c1Cl [Example 326, 3-Chloro-5-cyano-4-methyl-N-(3-methyl-1H-indazol-5-yl)picolinamide] | 100 to 1000 nM | < 100 nM
Cc1c(C(=O)Nc2ccc3[nH]nc(C4CC4)c3c2)nc(C(F)F)c(C#N)c1C [Example 327, 5-Cyano-N-(3-cyclopropyl-1H-indazol-5-yl)-6-(difluoromethyl)-3,4-dimethylpicolinamide] | < 100 nM | < 100 nM
Cc1c(C(=O)Nc2ccc3[nH]nc(C4CC4)c3c2)nc(C(F)(F)F)c(C#N)c1C [Example 328, 5-Cyano-N-(3-cyclopropyl-1H-indazol-5-yl)-3,4-dimethyl-6-(trifluoromethyl)picolinamide] | < 100 nM | < 100 nM
COc1n[nH]c2ccc(NC(=O)c3nc(Br)c(C#N)c(C)c3C)cc12 [Example 329, 6-Bromo-5-cyano-N-(3-methoxy-1H-indazol-5-yl)-3,4-dimethylpicolinamide] | < 100 nM | < 100 nM
